These are literature values, as cited in patent US20100056426A1, “USE OF IRON CHELATOR FOR THE TREATMENT OF MYOCARDIAL INFARCTION” (NOVARTIS AG, priority 2007, published 2010).

Like-named read-outs stand apart in the source and are kept apart here.

For data set [1] the following is noted: model systems; Hershko et al., Blood 2001.
For data set [2] the following is noted: humans; Nisbet Brown et al., Lancet 2003.

Turning to `O=C(O)c1ccc(-n2nc(-c3ccccc3O)nc2-c2ccccc2O)cc1` [4-[3,5-bis-(2-hydroxyphenyl)-[1,2,4]-triazol-1-yl]benzoic acid], the “selective removal of iron” value in data set [1] and in data set [2] was “effective in the selective removal of iron” throughout.
